Laboratory results published in article PMC8234864, “Early Effects of the Soluble Amyloid β25-35 Peptide in Rat Cortical Neurons: Modulation of Signal Transduction Mediated by Adenosine and Group I Metabotropic Glutamate Receptors” (International Journal of Molecular Sciences, 2021).
Where no end group is shown, it is not given here.

Experiments:
Type in all cases: cell-based, rat
mGluR1 = experiment: Extracellular immunostaining of mGluR1 in non-permeabilized neurons; details: 25 µM, 24 h, whole-cell immunostaining
Experimental: The quantitative analysis of the levels of Group I mGluR and mGluR2,3 at the plasma membrane was performed with extracellular targeted polyclonal antibodies (mGluR1, mGluR5 and mGluR2,3, Alomone Labs, Jerusalem, Israel), as previously described with minor modifications. Briefly, after 2 weeks in culture, the culture medium was removed and cells washed with Locke Buffer (LB, pH 7.4). Cells were then fixed with 4% paraformaldehyde for 10 min at room temperature and washed with three 10-min intervals with LB.
Nonspecific staining was suppressed by blocking with 3% normal goat serum in LB for 60 min. […]
To evaluate the degree of fluorescence intensity in cortical neurons, fluorescence was measured to estimate the protein expression in the different experimental conditions analyzed. Images (448.6 µm × 335.08 µm) obtained with a digital camera (Leica DFC350FX R2), attached to a Leica DMI6000B (Leica Microsystems, Wetzlar, Germany) fluorescent microscope, were used for quantification (20x HCX PL FLUOTAR 0.4 dry objective). […] Fluorescence intensity was estimated by averaging mean grey values. […] Data were normalized to the total number of cells in the analyzed fields. The mean fluorescence background, calculated in the unstained regions between neurons, was subtracted from the fluorescence intensity of each data point. […]

PLCβ1 gene expression = PLCβ1 gene expression by real-time RT-PCR; details: 25 µM
Experimental: (§1) Total RNA was extracted using an ABI 6100 Nucleic Acid PrepStation according to the manufacturer’s protocol (Applied Biosystems Inc., Foster City, CA, USA). Total RNA from cells was isolated and stored at −80 °C. The quality of isolated RNA was estimated by the ratio A260/A280 and was in the range of 1.9–2.1. RNA integrity was evaluated by agarose gel electrophoresis according to MIQE guidelines using the “bleach gel” method. RNA concentrations were determined from the A260. One microgram of total RNA was reverse transcribed using Applied Biosystems High-Capacity cDNA Archive Kit.
(§2) To assess relative gene expression in neurons, quantitative real-time RT-PCR analysis was performed with an Applied Biosystems Prism 7500 Fast Sequence Detection System using TaqMan® universal PCR master mix according to the manufacturer’s specifications. […] Levels of RNA expression were determined using the 7500 Fast System SDS software version 1.3.1 (Applied Biosystems) according to the 2^−ΔΔCt method. […] The results from three independent repeat assays, performed in different plates each using different cDNA’s from the cultures analyzed, were averaged to produce a single mean quantity value for each mRNA.

adenylyl cyclase (AC) = experiment: Adenylyl cyclase activity, basal and forskolin-stimulated
Experimental: AC activity was determined as previously reported by Murphy with minor modifications. Briefly, control or treated cells were pre-incubated in serum-free DMEM buffered with 20 mM HEPES, pH 7.4, supplemented with 100 µM Ro 20-1724 and 2 U/mL ADA, for 10 min at 37 °C. AC activity was stimulated using specific ligands for 15 min at 37 °C in a final volume of 250 µL. The reaction was stopped by adding 500 µL 0.1 M HCl in absolute ethanol. Once centrifuged at 12,000× g for 10 min, supernatants were evaporated in speed-vac and resuspended in 150 µL assay buffer (50 mM Tris-HCl, 4 mM EDTA). Fifty microliters of the sample were used to determine cAMP accumulation using protein kinase A as a cAMP binding protein and [^3H]cAMP as radioligand. A cAMP standard curve (0–16 pmol) was prepared in the same buffer. Incubation was stopped by rapid filtration through Whatman GF/B filters.

[1] = system: A1R (ADORA1) gene expression; experiment: A1R gene expression by real-time PCR; details: 25 µM, 24 or 48 h
Experimental: as §1, §2

[2] = system: A2AR (ADORA2A) gene expression; experiment: A2AR gene expression by real-time PCR; details: 25 µM, 24 or 48 h
Experimental: as §1, §2

## GSNKGAIIGLM [Aβ25-35]
mGluR1
  mGluR1 density at the membrane level, increase over control value: more than 7 fold
PLCβ1 gene expression; 24 h
  PLCβ1 gene expression decrease over control value: 28%
PLCβ1 gene expression; 48 h
  PLCβ1 gene expression decrease over control value: 33%
Adenylyl cyclase (AC); 25 µM, 24 h, 5 µM forskolin
  basal or forskolin-stimulated AC activity vs control neurons: No differences
Adenylyl cyclase (AC); neurons exposed to 25 µM for 24 h
  basal AC activity: 2.33 ± 0.55 pmol/mg/min
[1]
  A1R gene expression: significantly increased
[2]
  A2AR gene expression: significantly increased
